Here are results for 19 compounds from patent US8791144B2, “Substituted N-phenyl-1-(4-Pyridinyl)-1H-pyrazol-3-amines” (Janssen Pharmaceutica NV, priority 2009, dated 2014).

Series [1] deals with hα7-wt nAChR (Homo sapiens, UniProt P36544). The series is described as follows: Ca2+ flux imaging (FDSS): potentiation of the choline response. The series is classed as cell-based. The following applies: Ca2+ assay as described in D.1, potentiation of choline response, hα7-wt nAChR; for EC50: read-out: Potency (pEC50) (converted); for Emax: read-out: % Efficacy. As for the experimental part:
• a) Assay Buffer • Hanks buffered saline solution (HBSS, Invitrogen, Belgium), supplemented with 10 mM HEPES (Invitrogen, Belgium), CaCl2 to a final concentration of 5 mM, 0.1% Bovine serum albumin (Sigma-Aldrich NV, Belgium). • b) Calcium-Sensitive Dye—Fluo-4AM • Fluo-4AM (Molecular Probes, USA) was dissolved in DMSO containing 10% Pluronic acid (Molecular Probes, USA) to give a stock solution which was diluted in assay buffer supplemented with 5 mM probenicid (Sigma, Aldrich NV, Belgium) to give a final concentration of 2 μM. • c) 384-Well Plates • Black 384 well plate black/clear plates, PDL pre-coated (Corning, Incorporated, USA) • d) Calcium Flux Measurement • A Functional drug screening system (FDSS, Hamamatsu) was used to measure intracellular free-calcium flux signals. Method
Monolayers of hα7-wt nAChR-expressing cells were grown in multi-well plates, in particular black-sided, transparent bottomed 384 well plates coated with poly-D-lysine for 24 hours prior to loading with a fluorescent calcium indicator, in a particular embodiment loading with fluo-4AM for up to 120 minutes.
PAM activity was detected in real time by applying the compounds to be tested to the loaded cells along with a α7 nicotinic receptor agonist during constant monitoring of cellular fluorescence in a FDSS. Compounds giving peak fluorescent responses greater than the response due to agonist alone, were considered to be α7 nAChR PAM's. In a particular embodiment, the α7 nicotinic receptor agonist was choline, a more particular embodiment choline applied at a sub-maximal concentration of 100 μM. In a further setting of the present invention the compounds to be tested were applied prior to the α7 nicotinic receptor agonist, in a particular embodiment up to 10 minutes prior to the agonist.
A control response to choline was calculated on each plate from the difference in peak in fluorescence in wells receiving either choline or assay buffer alone. Compounds of the present invention were tested at a concentration range from 0.01 μM to 30 μM. Compounds were considered to have an interesting activity when they potentiated the choline signal at least with 200% when tested at a concentration of 30 μM (the efficacy of 100 μM choline was defined as 100% in the absence of a PAM). An EC50 (or pEC50) was determined as a concentration relating to half the maximal effect, when a clear sigmoidal curve with top plateau was obtained.
Background: A change in cytosolic calcium serves as a functional read-out for many receptors and channels.

hα7-wt nAChR, sequence (P36544 23-502): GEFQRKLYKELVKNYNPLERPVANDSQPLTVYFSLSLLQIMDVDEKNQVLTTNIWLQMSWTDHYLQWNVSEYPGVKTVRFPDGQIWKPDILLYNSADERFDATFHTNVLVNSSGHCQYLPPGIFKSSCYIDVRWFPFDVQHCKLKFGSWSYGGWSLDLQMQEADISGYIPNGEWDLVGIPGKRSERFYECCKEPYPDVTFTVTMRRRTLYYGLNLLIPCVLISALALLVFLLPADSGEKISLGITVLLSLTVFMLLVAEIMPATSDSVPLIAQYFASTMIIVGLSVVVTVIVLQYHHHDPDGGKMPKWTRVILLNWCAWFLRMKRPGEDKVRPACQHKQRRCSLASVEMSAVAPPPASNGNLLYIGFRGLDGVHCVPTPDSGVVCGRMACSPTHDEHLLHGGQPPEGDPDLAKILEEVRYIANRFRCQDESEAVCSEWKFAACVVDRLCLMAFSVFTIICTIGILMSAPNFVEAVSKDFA

A word on the melting point: it is the temperature of the solid-liquid transition. In turn, `CC[C@@H](O)Cc1cc(Nc2ccc(F)c(F)c2F)nn1-c1ccnc(C)c1` [Compound 13, (alphaR)-alpha-ethyl-1-(2-methyl-4-pyridinyl)-3-[(2,3,4-trifluorophenyl)amino]-1H-pyrazole-5-ethanol] showed a melting point of 144.4 °C. Further, in series [1], the EC50 is 316 nM. Consider `Cc1cc(-n2nc(Nc3cccc(OC(F)(F)F)c3)cc2COCc2ccccc2)ccn1` [Compound 122, 1-(2-methyl-4-pyridinyl)-5-[(phenylmethoxy)methyl]-N-[3-(trifluoromethoxy)phenyl]-1H-pyrazol-3-amine], for which the melting point was found to be 139.8 °C. In series [1], the EC50 was 372 nM. Compound `CC[C@@H](O)Cc1cc(Nc2cc(Cl)cc(OC)c2)nn1-c1ccnc(C)c1` [Compound 62, (alphaR)-3-[(3-chloro-5-methoxyphenyl)amino]-alpha-ethyl-1-(2-methyl-4-pyridinyl)-1H-pyrazole-5-ethanol] showed a melting point of 121.9 °C. Also, the EC50 in series [1] is 427 nM. Take `COc1cc(Nc2cc(CC#N)n(-c3ccnc(C)c3)n2)cc(C(F)(F)F)c1` [Compound 3, 3-[[3-methoxy-5-(trifluoromethyl)phenyl]amino]-1-(2-methyl-4-pyridinyl)-1H-pyrazole-5-acetonitrile]: the melting point was found to be 183.8 °C. In addition, in series [1], the Emax was determined as 930% and the EC50 was 1950 nM.

For `COC(=O)Cc1cc(Nc2cccc(OC(F)(F)F)c2)nn1-c1ccnc(C)c1` [Compound 109, 1-(2-methyl-4-pyridinyl)-3-[[3-(trifluoromethoxy)phenyl]amino]-1H-pyrazole-5-acetic acid methyl ester], the melting point was 115.8 °C. In addition, in series [1], the EC50 is 2000 nM.

In turn, `CC[C@@H](O)Cc1cc(Nc2cc(F)cc(Cl)c2)nn1-c1ccnc(C)c1` [Compound 60, (alphaR)-3-[(3-chloro-5-fluorophenyl)amino]-alpha-ethyl-1-(2-methyl-4-pyridinyl)-1H-pyrazole-5-ethanol] showed a melting point of 182.4 °C. Moreover, in series [1], the EC50 was 240 nM. As for `Cc1cc(-n2nc(Nc3cccc(Cl)c3F)cc2CC#N)ccn1` [Compound 63, 3-[(3-chloro-2-fluorophenyl)amino]-1-(2-methyl-4-pyridinyl)-1H-pyrazole-5-acetonitrile], in series [1], the Emax came out at 434% and the EC50 is 3890 nM. As to `COc1cc(Nc2cc(CCCO)n(-c3ccnc(C)c3)n2)cc(C(F)(F)F)c1` [Compound 7, 3-[[3-methoxy-5-(trifluoromethyl)phenyl]amino]-1-(2-methyl-4-pyridinyl)-1H-pyrazole-5-propanol], the EC50 in series [1] was 2880 nM.

In turn, `CNC(=O)Cc1cc(Nc2ccc(F)c(F)c2)nn1-c1ccnc(C)c1` [Compound 27, 3-[(3,4-difluorophenyl)amino]-N-methyl-1-(2-methyl-4-pyridinyl)-1H-pyrazole-5-acetamide] gave a melting point of 252.9 °C.

On to `Cc1cc(-n2nc(Nc3ccc(F)c(F)c3)cc2C)ccn1` [Compound 14, N-(3,4-difluorophenyl)-5-methyl-1-(2-methyl-4-pyridinyl)-1H-pyrazol-3-amine], for which the melting point was found to be 169.2 °C. In addition, the EC50 in series [1] is 3390 nM. As to `Cc1cc(-n2nc(Nc3ccc(F)c(F)c3)cc2CO)ccn1` [Compound 15, 3-[(3,4-difluorophenyl)amino]-1-(2-methyl-4-pyridinyl)-1H-pyrazole-5-methanol], the melting point was determined as 155.3 °C. The EC50 in series [1] is 2820 nM. For `Cc1cc(-n2nc(Nc3cccc(OC(F)(F)F)c3)cc2CC#N)ccn1` [Compound 107, 1-(2-methyl-4-pyridinyl)-3-[[3-(trifluoromethoxy)phenyl]amino]-1H-pyrazole-5-acetonitrile] the same measures were 180.2 °C and 2820 nM. On the same counts, the results for `COc1cc(Nc2cc(COCc3ccccc3)n(-c3ccnc(C)c3)n2)cc(C(F)(F)F)c1` [Compound 1, N-[3-methoxy-5-(trifluoromethyl)phenyl]-1-(2-methyl-4-pyridinyl)-5-[(phenylmethoxy)methyl]-1H-pyrazol-3-amine] are 148.1 °C and 1450 nM.

`Cc1cc(-n2nc(Nc3ccc(F)c(F)c3)cc2CCCOCc2ccccc2)ccn1` [Compound 32, N-(3,4-difluorophenyl)-1-(2-methyl-4-pyridinyl)-5-[3-(phenylmethoxy)propyl]-1H-pyrazol-3-amine] had a melting point of 108.2 °C. For the same compound, the EC50 in series [1] is 1020 nM.

Turning to `Cc1cc(-n2nc(Nc3cccc(C(F)(F)F)c3)cc2CC#N)ccn1` [Compound 40, 1-(2-methyl-4-pyridinyl)-3-[[3-(trifluoromethyl)phenyl]amino]-1H-pyrazole-5-acetonitrile], the EC50 in series [1] is 4370 nM. In turn, `CC[C@@H](O)Cc1cc(Nc2cccc(Cl)c2F)nn1-c1ccnc(C)c1` [Compound 59, (alphaR)-3-[(3-chloro-2-fluorophenyl)amino]-alpha-ethyl-1-(2-methyl-4-pyridinyl)-1H-pyrazole-5-ethanol] yielded a melting point of 168.1 °C. Besides, the EC50 in series [1] was 692 nM. `CNC(=O)Cc1cc(Nc2ccc3c(c2)OC(F)(F)O3)nn1-c1ccnc(C)c1` [Compound 97, 3-[(2,2-difluoro-1,3-benzodioxol-5-yl)amino]-N-methyl-1-(2-methyl-4-pyridinyl)-1H-pyrazole-5-acetamide] had a melting point of 271.2 °C. The EC50 in series [1] was 2510 nM. `CC[C@@H](O)Cc1cc(Nc2cc(F)c(F)c(F)c2)nn1-c1ccnc(C)c1` [Compound 19, (alphaR)-alpha-ethyl-1-(2-methyl-4-pyridinyl)-3-[(3,4,5-trifluorophenyl)amino]-1H-pyrazole-5-ethanol] had a melting point of 170.4 °C. In series [1], the Emax was 705% and the EC50 is 309 nM. In turn, `Cc1cc(-n2nc(Nc3ccc4c(c3)OC(F)(F)O4)cc2CCCOCc2ccccc2)ccn1` [Compound 104, N-(2,2-difluoro-1,3-benzodioxol-5-yl)-1-(2-methyl-4-pyridinyl)-5-[3-(phenylmethoxy)propyl]-1H-pyrazol-3-amine] registered a melting point of 124.4 °C. In addition, the EC50 in series [1] was 562 nM.
